The text below walks through data of US11234960B2, “Compositions and methods for improving mitochondrial function and treating neurodegenerative diseases and cognitive disorders” (Amazentis SA, priority 2010, dated 2022).

Assay [1] concerns PC-12 cells. Briefly: Neurite outgrowth in NGF-differentiated PC-12 cells. As to conditions: 0.5 μM. The assay is classed as cell-based, rat. The procedure:
The ellagitannins and their metabolites tested in the assays were synthesized or purchased from suppliers which included Funakoshi, Sigma, and Chemos. Stock solutions were aliquoted and stored at −20° C.
PC-12 cells (ATCC CRL-1721) were cultured at 37° C., 5% CO2 in poly L-lysine-coated culture flasks in complete culture medium (RPMI 1640+10% heat-inactivated horse serum+5% fetal bovine serum).
Cell differentiation was performed in culture flasks 24 h after plating, in complete medium supplemented with 100 ng/mL NGF (2.5 S NGF, Invitrogen). The NGF-supplemented medium was renewed every third day, and differentiation was induced over an 8-day period.
All compounds to be tested were prepared just before the experiment as a 50 mM stock solution in dimethylsulfoxide (DMSO). The final DMSO concentration was 0.1% in the medium of all experimental groups.
For neurite outgrowth measurements, differentiated cells were washed with phosphate-buffered saline (PBS), collected after detachment and replated at a density of 5,000 cells/well (biocoat imaging 96 well plate) in complete medium supplemented with 100 ng/mL NGF, with or without 10 μM SP600125 (negative control), 1 mM dbcAMP (positive control), or tested compound at 5×10^−7 M. In the undifferentiated control group, no NGF was added after replating.
After 72 h in culture, PC-12 cells were washed with PBS and fixed in 1% paraformaldehyde solution for 20 minutes. After 3 washes with PBS, immunofluorescence labeling was performed with Texas Red Maleimide probe, which reacts with thiol groups of cysteine residues of proteins, permitting the visualization of the entire cell morphology, including neurites.
Immunofluorescence analysis was performed in automated confocal microscopy. Images were acquired with a BD pathway 855 system, under X20 objective with 8×8 field montage. Neurite outgrowth was then measured from acquired images with the neurite module of Metamorph® software. Total and mean outgrowth, total and mean number of processes per cell, and total and percentage of cells with extensive outgrowth (defined as outgrowth longer than 20 μm) were analyzed.

Assay [2] deals with primary dopaminergic tyrosine hydroxylase (TH)-positive neurons. Briefly: Neurite outgrowth in primary dopaminergic TH-positive neurons. It is filed as cell-based, rat. As to conditions: 72 h; compounds 0.1 μM, SP600125 10 μM, dbcAMP 1 mM (FIG. 14). The procedure: Primary mesencephalic cultures were prepared from rat E14 embryos. Ventral mesencephalon was carefully dissected and dissociated. Cells were then plated in DMEM F12 medium containing 10% heat inactivated horse serum at the density of 100,000 cells/well (96-well plate), with or without the JNK-specific inhibitor SP600125 (10 μM) (which served as a negative control) or dbcAMP (1 mM) (which served as a positive control), or the compounds tested each at the doses of 0.1 μM.
72 h after plating, the effects on the neurite outgrowth of dopaminergic tyrosine hydroxylase (TH)-positive neurons were measured from images acquired by automated confocal microscopy (X4 objective, montage 4×4) and covering the entire well surface, and quantified using the Neurite outgrowth module of Metamorph® software. Several representative parameters of neurite outgrowth were thus generated: total and mean outgrowth, total and mean number of processes per cell, and total and percentage of cells with extensive outgrowth (defined as outgrowth longer than 20 μm) were analyzed. All experiments were performed in quadruplicate.

As for `O=C1OC[C@H]2OC(O)[C@H](O)[C@@H](O)[C@@H]2OC(=O)c2cc(O)c(O)c(O)c2-c2c(O)c(O)c3oc(=O)c4c(c(O)c(O)c5oc(=O)c2c3c54)-c2c1cc(O)c(O)c2O` (mixture of isomers) [punicalin], in assay [1] (72 h (FIG. 8)), the “percent of cells showing significant outgrowth (>20 μm), increase vs differentiated cells” value stood at 26%. Besides, the “number of processes (in words)” value in assay [1] (72 h, differentiated PC-12 cells) is on record as “induced an increase in the number of processes”. In the case of `Oc1c2ccccc2c2c3c(cccc13)N=N2` [SP600125], the increase in branching in assay [2] is on record as 60%. Still for that read-out and setting: the result for `CCCC(=O)Nc1ncnc2c1ncn2[C@@H]1O[C@@H]2COP(=O)(O)O[C@H]2[C@H]1OC(=O)CCC` [dbcAMP, dibutyryl cyclic AMP] reads 86%.
